The NIST ThermoML archive (doi:10.1021/je100042c)

Details: 101.33 kPa, Liquid; for viscosity: Concentric cylinders viscometry; for mass density: Vibrating tube method

CCCCCCCCCCCCCCCCCC(=O)OC [methyl octadecanoate]
Details | mass density [kg/m3] | viscosity [mPa·s]
313.15 K | 849.8 | 4.986
318.15 K | 846.1 | 4.435
323.15 K | 842.5 | 3.965
328.15 K | 838.9 | 3.568
333.15 K | 835.3 | 3.225
338.15 K | 831.7 | 2.929
343.15 K | 828.1 | 2.672
348.15 K | 824.5 | 2.448
353.15 K | 820.9 | 2.25
358.15 K | 817.3 | 2.076
363.15 K | 813.7 | 1.922

CCCCCCCC(=O)OC [methyl octanoate]
Details | mass density [kg/m3] | viscosity [mPa·s]
283.15 K | 885.9 | 1.71
288.15 K | 881.5 | 1.559
293.15 K | 877.1 | 1.427
298.15 K | 872.8 | 1.313
303.15 K | 868.4 | 1.212
308.15 K | 864 | 1.123
313.15 K | 859.6 | 1.044
318.15 K | 855.2 | 0.9733
323.15 K | 850.8 | 0.9093
328.15 K | 846.4 | 0.8518
333.15 K | 841.9 | 0.7998
338.15 K | 837.5 | 0.7528
343.15 K | 833 | 0.7101
348.15 K | 828.5 | 0.6713
353.15 K | 824 | 0.6359

CCCCCCCCCCCCCC(=O)OC [methyl tetradecanoate]
Details | mass density [kg/m3] | viscosity [mPa·s]
298.15 K | 863.7 | 3.982
303.15 K | 859.9 | 3.543
308.15 K | 856 | 3.165
313.15 K | 852.2 | 2.845
318.15 K | 848.4 | 2.571
323.15 K | 844.6 | 2.334
328.15 K | 840.8 | 2.129
333.15 K | 837 | 1.95
338.15 K | 833.1 | 1.793
343.15 K | 829.3 | 1.655
348.15 K | 825.5 | 1.532
353.15 K | 821.8 | 1.423
